Holding throughout (assay type): cell-based, human
Experiment [1] relates to CD34+ HSPCs. Briefly: lentiviral-based pooled functional screen of i53 variant libraries at the HBB locus; NGS enrichment in mCherry+GFP+ vs mCherry+GFP- cells. Particulars: MOI=2500. The protocol: CD34+ HSPC cells were transduced using lentivirus at MOIs of 0.25-1 at day 1 post thaw. Cells were concentrated using centrifugation (180 g×7 min), counted, and added at a concentration of 4×10^6 cells/mL to media containing lentivirus, cyclosporin A (5 μM, Sigma Aldrich) and Synperonic F108 (0.5 mg/mL, Sigma Aldrich). After 4 h of incubation, cells were spun down, washed once with media, and seeded into lentivirus-free media at a density of 3.5×10^5 cells/mL.
Chemically-modified single guide RNAs (sgRNAs) used to edit CD34+ HSPCs at the HBB locus were purchased from Synthego. […] Cells were collected, counted, and pelleted at 180 g×7 min. […]
Three days after transduction, cells were edited in triplicate or quadruplet at HBB as described above, using HBB-UBB-GFP donor AAV6 (MOI of 2.5×10^4 vector genomes/cell). […] The DNA concentration of each sample was measured using a Qubit 1×dsDNA BR assay kit (ThermoFisher).
An amplicon sequencing workflow was designed to sequence and quantify i53 variants within starting and post selection pools. […]
This approach was used to confirm sequence diversity in plasmid and lentiviral libraries prior to screening. For screening data analyses, a first quality control was performed on all runs to validate good values in number of mapped reads (>1e5 reads per sample), percent reads carried over from parent (from cloning), and overall distribution of sequences (no bias). […]

Experiment [2] relates to CD34+ HSPCs. In words: GFP knock-in at the CCR5 locus with purified i53 variants and CCR5-UBC-GFP AAV; flow cytometry. The settings on record: CCR5 locus; protein 0.4 mg/mL; MOIs 625 and 2500; both donors. The text has this:
(§1) Chemically-modified single guide RNAs (sgRNAs) were used to edit CD34+ HSPCs at the HBA, CCR5, and IL2RG loci. The sgRNA sequences were modified by adding 2′-O-methyl-3′-phosphorothioate at the three terminal nucleotides of the 5′ and 3′ ends. The target sequences for the HBA, CCR5, and IL2RG sgRNA are as follows: HBA: 5′-[…]-3′ (SEQ ID NO: 78), CCR5: 5′-[…]-3′ (SEQ ID NO: 79) IL2RG: 5′-[…]-3′ (SEQ ID NO: 80). Cas9 protein (SpyFi Cas9) was purchased from Aldevron. The RNPs were complexed at a Cas9:sgRNA molar ratio of 1:2.5 at 25° C. for 10-15 min prior to electroporation. Cells were collected, counted, and pelleted at 180 g×7 min. The cell pellets were resuspended in Maxcyte buffer with complexed RNPs and electroporated using a Maxcyte EXPERT ATx Nucleofector. After electroporation cells were plated at 3.5×10^5 cells/mL in media supplemented with cytokines and the desired AAV donor added at 5.0×10^2-2.5×10^4 vector genomes/cell. 24 h after nucleofection, cells were spun down, washed once with media, and seeded into AAV-free media at a density of 3.5×10^5 cells/mL. […]
(§2) Rates of targeted integration of the HBA-UBC-GFP, CCR5-UBC-GFP, and IL2RG-UBC-GFP donors were measured using a Beckman Coulter CytoFLEX. […] Flow cytometry data were analyzed using FlowJo 10 software.

The subject of experiment [3] is CD34+ HSPCs. Briefly: GFP knock-in at the IL2RG locus with purified i53 variants and IL2RG-UBC-GFP AAV; flow cytometry. Particulars: protein 0.4 mg/mL, MOIs 625 and 2500, both donors.
Excerpt: as §1, §2

The subject of experiment [4] is CD34+ HSPCs. In words: GFP knock-in at the HBA locus with purified i53 variants and HBA-UBC-GFP AAV; flow cytometry. Particulars: HBA locus; protein 0.4 mg/mL; MOIs 625 and 2500; both donors.
Excerpt: as §1, §2

Experiment [5] has as its system CD34+ HSPCs. In words: editing of CD34+ HSPCs with purified i53 variant proteins and HBB-UBC-GFP AAV donor; flow cytometry. Particulars: HBB locus; protein 0.4 mg/mL; MOIs 625 and 2500; both donors. On the procedure: Chemically-modified single guide RNAs (sgRNAs) used to edit CD34+ HSPCs at the HBB locus were purchased from Synthego. The sgRNA sequences were modified by adding 2′-O-methyl-3′-phosphorothioate at the three terminal nucleotides of the 5′ and 3′ ends. The target sequence for the HBB sgRNA is as follows: HBB: 5′[…]-3′ (SEQ ID NO: 74). Cas9 protein (SpyFi Cas9) was purchased from Aldevron. The RNPs were complexed at a Cas9:sgRNA molar ratio of 1:2.5 at 25° C. for 10-15 min prior to electroporation. Cells were collected, counted, and pelleted at 180 g×7 min. The cell pellets were resuspended in Maxcyte buffer with complexed RNPs and electroporated using a Maxcyte EXPERT ATx Nucleofector. After electroporation cells were plated at 3.5×10^5 cells/mL in media supplemented with cytokines and the desired AAV donor added at 5.0×10^2-2.5×10^4 vector genomes/cell. 24 h after nucleofection, cells were spun down, washed once with media, and seeded into AAV-free media at a density of 3.5×10^5 cells/mL.
CD34+ HPSCs were edited with protein variants 3 days post thaw and were harvested 2 days post nucleofection for NGS analysis or 3-5 days post nucleofection for GFP expression analysis. Editing reactions with proteins at a given concentration were repeated in duplicate or triplicate (either using the same CD34+ HSPC donor or across multiple donors).
Rates of targeted integration of the HBB UBC GFP donor were measured using a Beckman Coulter CytoFLEX. DAPI (Miltenyi Biotec) was used to discriminate live and dead cells. Flow cytometry data were analyzed using FlowJo 10 software.

“T12Y.T14E.L67R: purified hit mutant of i53”: in the experiment with CD34+ HSPCs [1] (combinatorial library at positions 12 and 14, parent L67R), the “differential variant enrichment in the mCherry+GFP+ population relative to parent L67R” value is on record as “particularly beneficial to HDR levels at HBB relative to parent T12 T14 L67R”. The “% GFP incorporation relative to the no protein control” value in the experiment on CD34+ HSPCs [2], in the experiment with CD34+ HSPCs [3], in the experiment with CD34+ HSPCs [4] and in the experiment on CD34+ HSPCs [5] was “increase % GFP incorporation relative to the no protein control” throughout.

Turning to “T12V.T14H.L67H: purified hit mutant of i53”, in the experiment on CD34+ HSPCs [1] (combinatorial library at positions 12 and 14, iterating on L67H), the “differential variant enrichment in the mCherry+GFP+ population relative to parent L67H” value is on record as “emerged as hits relative to parent L67H”. The “% GFP incorporation relative to the no protein control” value in the experiment on CD34+ HSPCs [2], with CD34+ HSPCs [3], with CD34+ HSPCs [4] and in the experiment with CD34+ HSPCs [5] was “increase % GFP incorporation relative to the no protein control” throughout.
